The test system of assay [1] is HBV in primary human hepatocytes (PHH). In words: Cryopreserved primary human hepatocytes (PHH) HBV infection assay. In kind it is cell-based. The note with it: Hepatitis B virus, Hepatocyte, 216 h, HBV-infected cryopreserved PHH, 9 days post-compound treatment, extracellular HBsAg by CLIA; read-out: HBsAg IC50. The protocol:
This assay is used to confirm the anti-HBV effect of the compounds in HBV PHH infection assay. Cryopreserved PHH (BioreclamationIVT, Lot YJM) was thawed at 37° C. and gently transferred into pre-warmed InVitroGRO HT medium (BioreclamationIVT, Cat. S03317). The mixture was centrifuged at 70 relative centrifugal force (RCF) for 3 minutes at RT, and the supernatant was discarded. Pre-warmed InVitroGRO CP medium (BioreclamationIVT, Cat #S03316) was added to the cell pellet to gently re-suspend cells. The cells were seeded at the density of 5.8×10^4 cells per well to collagen I coated 96-well plate (Gibco, Cat. A1142803) with the InVitroGRO CP medium. All plates were incubated at 37° C. with 5% CO2 and 85% humidity.
At 20 hours after plating, the medium was changed to PHH culture medium (Dulbecco's Modified Eagle Medium (DMEM)/F12 (1:1) (Gibco, Cat. 11320-033), 10% fetal bovine serum (Gibco Cat. 10099141), 100 U/mL penicillin, 100 μg/mL streptomycin (Gibco, Cat. 151401-122), 5 ng/mL human epidermal growth factor (Invitrogen Cat. PHG0311L), 20 ng/mL dexamethasone (Sigma, Cat. D4902) and 250 ng/mL human recombinant insulin (Gibco, Cat. 12585-014)). And the cells were incubated at 37° C. with 5% CO2 and 85% humidity for 4 hours. The medium was then changed to pre-warmed PHH culture medium containing 4% polyethylene glycol (PEG) MW8000 (Sigma, Cat. P1458-50ML) and 1% DMSO (Sigma, Cat. D2650). 5.8×10^6 genomic equivalents of HBV were added into the medium.
At 24 hours post-infection, the cells were gently washed with PBS and refreshed with PHH culture medium supplemented with 1% DMSO, and 0.25 mg/mL Matrix gel (Corning, Cat. 356237) at 200 μL per well. All plates were immediately placed in at 37° C. CO2 incubator.
24 hours later, serial dilutions of compounds made with DMSO were further diluted with the same culture medium (PHH culture medium supplemented with 1% DMSO and 0.25 mg/mL Matrix gel as described above) before they were added to the cells to reach desired final compound concentrations and 1% DMSO concentration. The medium containing the compounds were refreshed every three days.
At 9 days post-compound treatment, extracellular HBsAg level were measured with Chemiluminescence Immuno Assay (CLIA) kit (Autobio, HBsAg Quantitative CLIA). Extracellular HBV DNA was extracted by MagNA Pure 96 system (Roche) and then determined by quantitative PCR with the following primers and probe: […]
HBsAg IC50 and HBV DNA IC50 values were derived from the dose-response curve using 4 parameter logistic curve fit method. The compounds of formula (I) have HBsAg IC50<20 μM, particularly <1 μM; and HBV DNA IC50<50 μM. Test results of the compounds of this invention as well as the reference compounds in Cryopreserved PHH assay are given in Table 2 and Table 3.

Assay [2] concerns HBeAg level (surrogate marker for cccDNA) in HepDES19 cells. The experiment in a line: Engineered HepDES19 primary screen assay (HBeAg as surrogate marker for cccDNA). In kind it is cell-based, HBV. From the text:
The assay was employed to screen for novel cccDNA inhibitors. HepDES19 is a cccDNA-producing cell line. In this cell line, HBeAg in the cell culture supernatant as surrogate marker, as HBeAg production depends on cccDNA level and activity. HepDES19 is an engineered cell line which contains a 1.1 unit length HBV genome, and pgRNA transcription from the transgene is controlled by Tetracycline (Tet). In the absence of Tet, pgRNA transcription will be induced, but HBV e antigen (HBeAg) could not be produced from this pgRNA due to very short leader sequence before the HBeAg start codon and the start codon is disrupted. Only after cccDNA is formed, the missing leader sequence and start codon mutation would be restored from the 3′-terminal redundancy of pgRNA, and then HBeAg could be synthesized. Therefore, HBeAg could be used as a surrogate marker for cccDNA (Zhou, T. et al., Antiviral Res. (2006), 72(2), 116-124; Guo, H. et al., J. Virol. (2007), 81(22), 12472-12484).
HepDES19 cells were seeded at 2×10^6 cells per T150 flask and cultured with the culture medium (Dulbecco's Modified Eagle Medium: Nutrient Mixture F-12 [DMEM-F12, Gibco Cat. 11320-82], 10% Fetal Bovine Serum [FBS, Clontech Cat. 631101], 0.1 mM Non-Essential Amino Acids Solution [NEAA, Gibco Cat. 11140-050], 50 μg/mL Penicillin-Streptomycin [PS, Invitrogen Cat. 15140-163], 500 μg/mL Geneticin [G418, Invitrogen Cat. 10131-027]) containing 3 μg/mL Tet (Sigma, Cat. 87128) for 5 days. Cells were then seeded at 4×10^6 cells per T150 in the same culture medium as described above in the absence of Tet for 8 days. Cells were then harvested and frozen at density of 2×10^6 cells per mL. For compound testing, the frozen cells were thawed and seeded into 96-well plates at a density of 6×10^4 cells per well. At 24 hrs after seeding, half log serial dilutions of compounds made with Dimethyl sulfoxide (DMSO, Sigma, Cat. D2650) were further diluted with the same culture medium as described above before they were added to the cells to reach desired final compound concentrations and 1% DMSO concentration. Plates were then incubated at 37° C. for another 5 days before measurement of HBeAg level and cell viability. Intracellular HBeAg level were measured with enzyme-linked immunosorbent assay (ELISA) kit (Shanghai Kehua Diagnostic Medical Products Co., Ltd). Cell viability was assessed using Cell Counting Kit-8 (Donjindo, Cat. CK04-20). IC50 values were derived from the dose-response curve using 4 parameter logistic curve fit method.
The compounds of the present invention were tested for their capacity to inhibit extracellular HBeAg level as described herein.

Where [3] appears, read: Hepatitis B virus, HepDES19, 120 h, read-out: IC50 (HBeAg) in HepDES19 primary screen assay, HepDES19 cells, 5 days incubation with compound, HBeAg by ELISA.
Where [4] appears, read: read-out: IC50 (HBeAg) in HepDES19 primary screen assay, HepDES19 cells, 5 days incubation with compound, HBeAg by ELISA.

Like-named read-outs stand apart in the source and are kept apart here.

`Cc1cc(-c2cc(=O)c3ccc(C(F)(F)F)c(Cl)c3o2)ccc1OCCOC1CC(C(=O)O)C1` (stereo not drawn) [Example 72, 3-[2-[4-[8-chloro-4-oxo-7-(trifluoromethyl)chromen-2-yl]-2-methyl-phenoxy]ethoxy]cyclobutanecarboxylic acid]: the values for the 50% inhibitory concentration (IC50) in assay [1] and in assay [2] (setting [3]) were 7.41 µM and 14.4 µM, respectively.
In the case of `O=c1cc(-c2ccc(OCCO[C@H]3C[C@@H](C(=O)O)C3)nc2)oc2c(Cl)cccc12` (single isomer, unassigned) [Example 38-A, 3-[2-[[5-(8-chloro-4-oxo-chromen-2-yl)-2-pyridyl]oxy]ethoxy]cyclobutanecarboxylic acid], the IC50 (commonly the concentration that inhibits the measured activity by half) in assay [1] worked out at 0.46 µM; in assay [2] (setting [4]), 5.29 µM.
Take `O=c1cc(-c2ccc(OCCO[C@H]3C[C@@H](C(=O)O)C3)c(Cl)c2)oc2c(Cl)cccc12` [Example 43, Cis-3-[2-[2-chloro-4-(8-chloro-4-oxo-chromen-2-yl)phenoxy]ethoxy]cyclobutanecarboxylic acid]: the IC50 came out at 0.22 µM in assay [1] and 0.25 µM in assay [2] (setting [3]).
For `O=c1cc(-c2ccc(OCCO[C@H]3C[C@@H](C(=O)O)C3)cc2)oc2c(Cl)ccc(Cl)c12` [Example 29, Cis-3-[2-[4-(5,8-dichloro-4-oxo-chromen-2-yl)phenoxy]ethoxy]cyclobutanecarboxylic acid], in that order: 0.9 µM and 0.21 µM.
On to `O=C(O)C1CC(OCCOc2ccc(-c3cc(=O)c4cc(C5CC5)cc(Cl)c4o3)cc2)C1` (stereo not drawn) [Example 67, 3-[2-[4-(8-chloro-6-cyclopropyl-4-oxo-chromen-2-yl)phenoxy]ethoxy]cyclobutanecarboxylic acid], for which the values for the IC50 in assay [1] and in assay [2] (setting [3]) were 2.77 µM and 14.1 µM, respectively.
As to `O=C(O)C1CC(OCCCOc2ccc(-c3cc(=O)c4cccc(Cl)c4o3)cc2)C1` (stereo not drawn) [Example 13, 3-[3-[4-(8-chloro-4-oxo-chromen-2-yl)phenoxy]propoxy]cyclobutanecarboxylic acid], the IC50 in assay [1] is 1.27 µM; in assay [2] (setting [3]), 0.69 µM.
Regarding `O=c1cc(-c2ccc(OCCO[C@H]3C[C@H](C(=O)O)C3)cc2)oc2c(Cl)cccc12` [Example 1-B, trans-3-[2-[4-(8-chloro-4-oxo-chromen-2-yl)phenoxy]ethoxy]cyclobutanecarboxylic acid], the IC50 in assay [1] is 0.08 µM; in assay [2] (setting [3]), 0.14 µM.
Take `COC(=O)[C@H]1C[C@@H](OCCOc2cnc(-c3cc(=O)c4cccc(Cl)c4o3)cn2)C1` [Example 40, Cis-methyl 3-[2-[5-(8-chloro-4-oxo-chromen-2-yl)pyrazin-2-yl]oxyethoxy]cyclobutanecarboxylate]: the figures for the IC50 in assay [1] and in assay [2] (setting [3]) were 7.12 µM and 1.61 µM, respectively.
`O=C(O)C1CC(OCCOc2ccc(-c3cc(=O)c4ccc(Cl)c(Cl)c4o3)cc2)C1` (stereo not drawn) [Example 21, 3-[2-[4-(7,8-dichloro-4-oxo-chromen-2-yl)phenoxy]ethoxy]cyclobutanecarboxylic acid]: the IC50 in assay [1] came to 5.1 µM; in assay [2] (setting [3]), 0.29 µM.
In the case of `O=C(O)[C@H]1C[C@H]1OCCOc1ccc(-c2cc(=O)c3cccc(Cl)c3o2)cc1` (single isomer, unassigned) [Example 5-B, 2-[2-[4-(8-chloro-4-oxo-chromen-2-yl)phenoxy]ethoxy]cyclopropanecarboxylic acid], the values for the IC50 in assay [1] and in assay [2] (setting [4]) were 1.78 µM and 11.2 µM, respectively.
In the case of `O=C(O)COC1CC(COc2ccc(-c3cc(=O)c4cccc(Cl)c4o3)cc2)C1` (stereo not drawn) [Example 8, 2-[3-[[4-(8-chloro-4-oxo-chromen-2-yl)phenoxy]methyl]cyclobutoxy]acetic acid], the 50% inhibitory concentration (IC50) in assay [1] was 0.12 µM; in assay [2] (setting [3]), 1.34 µM.
With `CC(C)(COCCOc1ccc(-c2cc(=O)c3cccc(Cl)c3o2)cc1)C(=O)O` [Example 11, 3-[2-[4-(8-chloro-4-oxo-chromen-2-yl)phenoxy]ethoxy]-2,2-dimethyl-propanoic acid], the IC50 in assay [1] amounted to 12.5 µM; in assay [2] (setting [3]), 0.57 µM.
For `O=c1cc(-c2ccc(OCCO[C@H]3C[C@@H](C(=O)O)C3)c(F)c2)oc2c(Cl)cccc12` [Example 42, Cis-3-[2-[4-(8-chloro-4-oxo-chromen-2-yl)-2-fluoro-phenoxy]ethoxy]cyclobutanecarboxylic acid], in that order: 0.58 µM and 0.61 µM.
Take `O=C(O)COCCOc1ccc(-c2cc(=O)c3cccc(Cl)c3s2)cc1` [Example 58, 2-[2-[4-(8-chloro-4-oxo-thiochromen-2-yl)phenoxy]ethoxy]acetic acid]: the IC50 in assay [1] is 0.57 µM; in assay [2] (setting [3]), 0.52 µM.
In the case of `O=C(O)C1CC(OCCOc2ccc(-c3oc4c(Cl)cc(F)cc4c(=O)c3OC(F)(F)F)cc2)C1` (stereo not drawn) [Example 63, 3-[2-[4-[8-chloro-6-fluoro-4-oxo-3-(trifluoromethoxy)chromen-2-yl]phenoxy]ethoxy]cyclobutanecarboxylic acid], the half-inhibitory concentration (IC50) in assay [1] stood at 5.36 µM; in assay [2] (setting [3]), 1.81 µM.
As for `O=C(O)C1CC(OCCOc2ccc(-c3cc(=O)c4cccc(Cl)c4s3)cc2)C1` (stereo not drawn) [Example 57, 3-[2-[4-(8-chloro-4-oxo-thiochromen-2-yl)phenoxy]ethoxy]cyclobutanecarboxylic acid], the results for the IC50 in assay [1] and in assay [2] (setting [3]) were 0.14 µM and 0.09 µM, respectively.
Take `O=c1cc(-c2ccc(OCCO[C@H]3C[C@@H](C(=O)O)C3)cc2)oc2c(Cl)ccc(C3CC3)c12` [Example 30, Cis-3-[2-[4-(8-chloro-5-cyclopropyl-4-oxo-chromen-2-yl)phenoxy]ethoxy]cyclobutanecarboxylic acid]: the IC50 was 7.29 µM in assay [1] and 0.13 µM in assay [2] (setting [3]).
With `N#Cc1ccc2c(=O)cc(-c3ccc(OCCOC4CC(C(=O)O)C4)cc3)oc2c1Cl` (stereo not drawn) [Example 23, 3-[2-[4-(8-chloro-7-cyano-4-oxo-chromen-2-yl)phenoxy]ethoxy]cyclobutanecarboxylic acid], the IC50 in assay [1] was 7.11 µM; in assay [2] (setting [3]) it was 21.1 µM.

For the origin of these results see patent publication US12012390B2, “Flavone compounds for the treatment and prophylaxis of hepatitis B virus disease” (priority 2018, dated 2024).
